Measured values from US8207154B2, “Catatonic bacteriochlorophyll derivatives” (Yeda Research and Development Co., Ltd., priority 2005, dated 2012).

Key:
[1] = tested on: H5V mouse endothelial cells; assay: Phototoxicity (cytophototoxicity) on endothelial cells, Neutral Red viability; format: cell-based; settings: endothelial cell cultures, FIG. 3C
Description: (i) Cell culture. H5V mouse endothelial cells were cultured as monolayers in Dulbecco's modified Eagle's medium (DMEM)/F12 containing 25 mM HEPES, pH 7.4, 10% fetal calf serum (FCS), glutamine (2 mM), penicillin (0.06 mg/ml), and streptomycin (0.1 mg/ml) (hereinafter referred to as the “culture medium”). The cells were grown at 37° C. in an 8% CO2-humidified atmosphere.
(a) Cells. To determine the photodynamic efficacy, cells were cultured in 96-well plates (40×10^3/well) and incubated in the dark in culture medium containing increasing concentrations of sensitizers 5, 7, 9 and 11, for a period of 1 min to 8 h. Unbound sensitizer was removed by washing the cells once with fresh culture medium. The plates were illuminated at room temperature, from their bottom side, for 10 min (650<λ<800 nm, 12 J/cm^2). The light source was a 100 W Halogen lamp (Osram, Germany) equipped with a <650 nm cutoff and a 4-cm water filter. The cultures were placed in the culture incubator and cell survival was determined 24 h after illumination, by Neutral Red viability assay. Cell survival was calculated as the percent of the dye accumulated in the untreated controls. Triplicate determinations were conducted and representative experiments are shown. […]
The phototoxicity of compounds 5, 7, 9, and 11 on H5V mouse endothelial cells was determined as described in section (iv) (a) above. […]

C6 glioma xenografts = assay: Photodynamic treatment (PDT) of C6 glioma xenografts; format: in vivo, CD1 nude mice
Description: (vii) Tumor implantation. Cultured C6 glioma cell monolayers were scraped in saline, centrifuged at 250 g for 5 min, resuspended in saline and subcutaneously injected (2×10^6 cells/mouse) into the back of CD1 nude mice. Tumors reached a treatment diameter of 6-8 mm within 2 weeks. The mice were sacrificed (according to the guidelines of the Weizmann Institute of Science) when tumors reached the diameter of ≧15 mm.
(xi) PDT Protocol. CD1 nude mice bearing C6 glioma (n=17) were anesthetized and compound 5 (0.3 mg/kg) was injected via the tail vein. The tumor area was immediately illuminated (drug-to-light time interval (DLTI)=0) transcutaneously for 15 min by 755 nm diode laser (CeramOptec, Germany) with light dose of 80 mW/cm^2 (light field diameter—14 mm). Following illumination the mice (n=12) were placed back in the cage. Tumor response (using local necrosis at day 8 post-PDT as end point) was recorded photographically, and tumor volume was assessed (Gleave et al., 1992.) Response was considered as partial when only a part of the illuminated tumor became necrotic. Mice were considered cured if they were tumor free 90 days after treatment. Continued tumor growth following PDT was scored as no response. Mice were sacrificed when tumor diameter reached 15 mm. The following controls were used: (i) dark control (n=3)-tumor-bearing mice i.v. injected with sensitizer but not illuminated; (ii) light control (n=2)-tumor-bearing mice not injected with sensitizer but illuminated; (iii) untreated control (n=2)-tumor-bearing mice not injected with sensitizer and not illuminated.
Based on the pharmacokinetic data described in Example 20 above, the treatment protocol for compound 5 was set to 15-min illumination immediately after injection of the sensitizer, using a dedicated medical laser matched to the peak absorption of 5 (CeramOptec, Germany, 755 nm). In order to test the drug efficiency, CD1 male nude mice (n=12) were treated with a dose of 0.3 mg/kg compound 5 and light intensity of 80 mW/cm^2. […] FIGS. 6B-6C are photographs of the tumor site of a mice injected with compound 5 but not illuminated and of a mice injected with saline and illuminated, respectively.
FIG. 7 depicts a Kaplan-Meier survival curve showing 80% survival for mice treated with compound 5 and illuminated (treatment, squares).

E. coli = assay: Phototoxicity on Gram-negative bacteria, colony counting; format: cell-based, E. coli XL-1
Description: (ii) Bacterial cultures. Bacteria of strains St. albus and E. coli XL-1 were cultured in liquid LB medium (E. coli in LB containing 12.5 μg tetracyclin/ml) to a final density of OD600 nm=0.5-0.9 (1 OD=8×10^8 bacteria/ml). The bacteria were spun down (4000×g, 5 min.) and resuspended in PBS.
(b) Bacterial. To determine the photodynamic efficacy, bacteria were diluted to aliquots of 300 μl containing about 10^7 bacteria, and incubated with increasing concentrations of sensitizer in plastic test tubes in the dark for 1 h at room temperature, and then illuminated at 70 mW/cm^2 for 15 min. Samples of the treated bacteria cultures were subsequently plated at different dilutions (50-200 bacteria/plate) on LB agar and cultured for 24 h at 37° C. for determination of bacterial survival by colony counting. Triplicate determinations were conducted and representative experiments are shown.
The phototoxicity of positively-charged compound 5 was tested on Gram-positive St. albus and Gram-negative E. coli bacteria in comparison to the negatively-charged Pd 3^1-oxo-15-methoxycarbonylmethyl-Rhodobacteriochlorin 13^1-(2-sulfoethyl)amide dipotassium salt (described in PCT/IL03/00973). Bacteria were incubated with increasing concentrations of the sensitizers for 1 h and illuminated or kept in the dark. […] Gram-positive bacteria St. albus, was 100 times more sensitive to compound 5 than Gram-negative E. coli. No phototoxicity was observed when bacteria were incubated and treated with the same sensitizers' concentration range without illumination (dark controls).

3^1-Oxo-15-methoxycarbonylmethyl-Rhodo-bacteriochlorin 13^1,17^3-di(2-N^3-trimethylammoniumethyl)amide dicitrate salt [Compound 5]
incubation time at which very high PDT efficiency is reached [1]: less than 5 minutes
survival (Kaplan-Meier survival curve) (C6 glioma xenografts; 0.3 mg/kg i.v., illuminated 15 min, 755 nm, 80 mW/cm^2): 80%
lower concentration causing tumor eradication than Pd-Bpheid or the negatively-charged 13^1-(2-sulfoethyl)amide dipotassium salt (C6 glioma xenografts; C6 glioma xenografts in mice): 10 fold
outcome at tumor site (C6 glioma xenografts; PDT-treated mouse, by day 32): the wound healed and the animal was cured
tumor necrosis (C6 glioma xenografts; PDT-treated mouse, day 14, 0.3 mg/kg, 80 mW/cm^2): tumor necrosis was observed
local reaction after treatment (C6 glioma xenografts; all animals of full treatment group, day 1 after treatment): developed inflammation and edema
tumor necrosis, dark control (C6 glioma xenografts; injected with compound but not illuminated): No necrosis of the tumor
death of E. coli (E. coli; 10 μM, illuminated): ~100%
phototoxic concentration (E. coli; 1 h incubation, illuminated 15 min at 70 mW/cm^2, read-out: Kd (phototoxicity)): 1700 nM
